Test results reported in ChEMBL document CHEMBL5465560, “Selectivity Literature for EUbOPEN Chemogenomic Library” (2024).

Assays:
[1] = target: T1, Serine/threonine-protein kinase Nek2 (Homo sapiens) (UniProt P51955); test: Selectivity interaction (Ambit KINOMEscan and KiNATiv profiling in Jurkat cells) EUB0000090b NEK2; format: cell-based; settings: at 1 µM
T1 sequence (whole entry): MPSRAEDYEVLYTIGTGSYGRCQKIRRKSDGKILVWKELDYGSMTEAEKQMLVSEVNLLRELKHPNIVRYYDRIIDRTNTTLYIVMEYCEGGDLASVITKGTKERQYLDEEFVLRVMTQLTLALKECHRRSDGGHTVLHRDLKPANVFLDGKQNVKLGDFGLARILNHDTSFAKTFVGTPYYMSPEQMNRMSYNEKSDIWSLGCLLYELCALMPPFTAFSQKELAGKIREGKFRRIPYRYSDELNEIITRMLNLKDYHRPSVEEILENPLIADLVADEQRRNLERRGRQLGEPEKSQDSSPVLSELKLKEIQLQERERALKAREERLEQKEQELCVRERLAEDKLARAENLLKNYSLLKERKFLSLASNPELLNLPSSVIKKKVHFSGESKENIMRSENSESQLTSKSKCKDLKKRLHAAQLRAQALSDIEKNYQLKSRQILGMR

[2] = target: Insulin receptor-related protein (Homo sapiens) (UniProt P14616); test: Selectivity interaction (KinomeScan (DiscoverX)) EUB0001079a INSRR; settings: at 1 µM
[3] = target: T2, Discoidin domain-containing receptor 2 (Homo sapiens) (UniProt Q16832); test: Selectivity interaction (KinomeScan (DiscoverX)) EUB0000607a DDR2; settings: at 10 µM
T2 sequence (whole entry): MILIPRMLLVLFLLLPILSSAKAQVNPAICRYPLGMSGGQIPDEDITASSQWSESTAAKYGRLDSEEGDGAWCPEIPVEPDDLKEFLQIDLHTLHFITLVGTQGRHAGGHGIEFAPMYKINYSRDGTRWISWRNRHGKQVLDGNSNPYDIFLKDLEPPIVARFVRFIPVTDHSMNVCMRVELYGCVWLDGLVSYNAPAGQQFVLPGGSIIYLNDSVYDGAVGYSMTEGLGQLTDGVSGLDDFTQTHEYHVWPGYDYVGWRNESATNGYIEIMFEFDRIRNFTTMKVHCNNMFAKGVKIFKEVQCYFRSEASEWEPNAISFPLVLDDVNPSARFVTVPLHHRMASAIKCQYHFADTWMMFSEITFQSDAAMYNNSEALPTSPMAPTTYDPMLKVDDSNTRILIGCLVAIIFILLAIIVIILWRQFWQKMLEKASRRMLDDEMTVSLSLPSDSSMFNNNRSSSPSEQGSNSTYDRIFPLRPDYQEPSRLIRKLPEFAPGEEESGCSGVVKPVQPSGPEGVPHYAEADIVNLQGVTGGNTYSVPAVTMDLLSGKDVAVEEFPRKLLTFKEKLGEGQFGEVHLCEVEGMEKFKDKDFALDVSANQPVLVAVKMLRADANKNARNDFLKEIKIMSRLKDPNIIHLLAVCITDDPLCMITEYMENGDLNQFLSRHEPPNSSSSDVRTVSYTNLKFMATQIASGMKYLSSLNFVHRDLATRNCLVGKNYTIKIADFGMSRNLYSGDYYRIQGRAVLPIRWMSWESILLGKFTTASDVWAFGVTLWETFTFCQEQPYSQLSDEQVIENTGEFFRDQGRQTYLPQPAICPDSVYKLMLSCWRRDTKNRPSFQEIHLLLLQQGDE

[4] = target: Serine/threonine-protein kinase pim-1 (Homo sapiens, UniProt P11309); settings: at 10 µM
[5] = target: Cyclin-dependent kinase 10 (Homo sapiens) (UniProt Q15131); test: Selectivity interaction (ActivX KiNativ screen (kinase selectivity in THP-1 cell lysates)) EUB0000639a CDK10; format: subcellular; settings: lysate
[6] = target: Ribosomal protein S6 kinase alpha-4 (Homo sapiens) (UniProt O75676); test: Selectivity interaction (KinomeScan (DiscoverX)) EUB0000229b RPS6KA4; settings: at 10 µM
[7] = target: Serine/threonine-protein kinase 24 (Homo sapiens) (UniProt Q9Y6E0); test: Selectivity interaction (ProQinase) EUB0000171b STK24
[8] = target: RAC-beta serine/threonine-protein kinase (Homo sapiens) (UniProt P31751); test: Selectivity interaction (KinomeScan (DiscoverX)) EUB0000666a AKT2; settings: at 10 µM
[9] = target: T3, Dual specificity mitogen-activated protein kinase kinase 6 (Homo sapiens) (UniProt P52564); test: Selectivity interaction (Kinase screening (Upstate/Millipore)) EUB0000604a MAP2K6
T3 sequence (whole entry): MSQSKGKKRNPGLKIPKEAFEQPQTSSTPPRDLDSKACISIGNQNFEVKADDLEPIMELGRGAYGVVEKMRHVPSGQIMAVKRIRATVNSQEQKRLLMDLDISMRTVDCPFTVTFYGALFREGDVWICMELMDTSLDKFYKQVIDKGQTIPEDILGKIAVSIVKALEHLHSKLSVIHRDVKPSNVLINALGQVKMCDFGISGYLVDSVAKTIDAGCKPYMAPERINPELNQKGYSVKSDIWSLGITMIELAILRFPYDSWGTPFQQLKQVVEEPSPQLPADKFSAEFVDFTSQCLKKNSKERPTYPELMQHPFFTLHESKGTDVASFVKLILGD

[10] = target: RAF proto-oncogene serine/threonine-protein kinase (Homo sapiens) (UniProt P04049); test: Selectivity interaction (KinomeScan (DiscoverX)) EUB0000695a RAF1; settings: at 100 nM
Sequence of RAF proto-oncogene serine/threonine-protein kinase (Homo sapiens) (P04049 whole entry): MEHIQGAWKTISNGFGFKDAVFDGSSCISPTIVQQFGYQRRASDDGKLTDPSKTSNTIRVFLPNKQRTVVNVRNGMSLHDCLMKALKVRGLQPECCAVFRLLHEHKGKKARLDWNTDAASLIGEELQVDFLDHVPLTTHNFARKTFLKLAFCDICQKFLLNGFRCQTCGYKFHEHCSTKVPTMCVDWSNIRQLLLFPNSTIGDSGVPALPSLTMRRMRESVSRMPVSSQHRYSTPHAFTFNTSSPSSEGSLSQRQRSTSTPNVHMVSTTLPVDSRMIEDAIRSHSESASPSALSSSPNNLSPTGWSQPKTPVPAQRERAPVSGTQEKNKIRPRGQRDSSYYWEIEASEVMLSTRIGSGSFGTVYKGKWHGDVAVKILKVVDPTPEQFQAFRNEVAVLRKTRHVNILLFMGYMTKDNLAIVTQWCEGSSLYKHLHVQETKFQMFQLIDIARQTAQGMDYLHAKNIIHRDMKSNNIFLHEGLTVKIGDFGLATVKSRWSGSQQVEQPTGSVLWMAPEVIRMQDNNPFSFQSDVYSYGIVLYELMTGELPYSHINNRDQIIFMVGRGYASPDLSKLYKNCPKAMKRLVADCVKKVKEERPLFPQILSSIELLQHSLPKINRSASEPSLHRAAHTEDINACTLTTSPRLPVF

Sequence of Cyclin-dependent kinase 10 (Homo sapiens) (Q15131 whole entry): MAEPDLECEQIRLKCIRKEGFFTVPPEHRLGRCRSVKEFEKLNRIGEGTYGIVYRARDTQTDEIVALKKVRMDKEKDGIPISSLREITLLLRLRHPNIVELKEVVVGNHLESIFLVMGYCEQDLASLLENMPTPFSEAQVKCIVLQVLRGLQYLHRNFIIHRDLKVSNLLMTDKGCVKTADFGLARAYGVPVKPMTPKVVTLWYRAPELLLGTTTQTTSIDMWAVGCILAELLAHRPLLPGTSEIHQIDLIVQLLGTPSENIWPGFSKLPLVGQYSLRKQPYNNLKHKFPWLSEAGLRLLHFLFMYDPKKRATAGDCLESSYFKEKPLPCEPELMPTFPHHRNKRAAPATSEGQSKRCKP
Sequence of Serine/threonine-protein kinase 24 (Homo sapiens) (Q9Y6E0 whole entry, looked up): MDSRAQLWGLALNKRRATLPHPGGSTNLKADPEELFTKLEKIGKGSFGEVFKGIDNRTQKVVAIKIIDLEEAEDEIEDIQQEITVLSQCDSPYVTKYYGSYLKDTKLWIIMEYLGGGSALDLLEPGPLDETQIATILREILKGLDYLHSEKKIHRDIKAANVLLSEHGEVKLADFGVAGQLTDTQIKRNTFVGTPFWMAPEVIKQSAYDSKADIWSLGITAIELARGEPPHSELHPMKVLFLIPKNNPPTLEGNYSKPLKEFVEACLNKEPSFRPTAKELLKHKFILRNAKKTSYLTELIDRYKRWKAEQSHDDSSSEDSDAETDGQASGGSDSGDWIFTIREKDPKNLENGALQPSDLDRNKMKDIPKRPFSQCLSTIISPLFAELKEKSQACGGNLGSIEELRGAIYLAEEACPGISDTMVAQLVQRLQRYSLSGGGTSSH
Sequence of Ribosomal protein S6 kinase alpha-4 (Homo sapiens) (O75676 whole entry, looked up): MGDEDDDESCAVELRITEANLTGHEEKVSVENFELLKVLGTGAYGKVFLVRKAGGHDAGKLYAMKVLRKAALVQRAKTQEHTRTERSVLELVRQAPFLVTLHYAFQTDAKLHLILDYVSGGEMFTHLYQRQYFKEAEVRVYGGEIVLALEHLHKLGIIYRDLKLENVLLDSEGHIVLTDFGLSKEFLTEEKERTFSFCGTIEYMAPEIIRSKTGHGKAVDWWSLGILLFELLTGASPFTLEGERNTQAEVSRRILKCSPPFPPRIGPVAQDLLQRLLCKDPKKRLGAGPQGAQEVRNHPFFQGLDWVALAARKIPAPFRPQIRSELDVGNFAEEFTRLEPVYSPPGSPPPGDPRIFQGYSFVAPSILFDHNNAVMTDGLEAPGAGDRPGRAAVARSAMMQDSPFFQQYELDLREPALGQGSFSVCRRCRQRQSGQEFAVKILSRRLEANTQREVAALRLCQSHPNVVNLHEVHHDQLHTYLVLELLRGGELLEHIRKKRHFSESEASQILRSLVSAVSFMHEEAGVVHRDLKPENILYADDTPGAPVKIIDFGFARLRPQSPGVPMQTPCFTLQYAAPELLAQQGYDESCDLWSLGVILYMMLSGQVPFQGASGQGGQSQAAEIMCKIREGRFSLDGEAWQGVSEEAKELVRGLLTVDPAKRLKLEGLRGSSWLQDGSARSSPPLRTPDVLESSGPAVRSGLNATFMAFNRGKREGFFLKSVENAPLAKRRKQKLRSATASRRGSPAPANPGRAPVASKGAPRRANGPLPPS
Sequence of RAC-beta serine/threonine-protein kinase (Homo sapiens) (P31751 whole entry): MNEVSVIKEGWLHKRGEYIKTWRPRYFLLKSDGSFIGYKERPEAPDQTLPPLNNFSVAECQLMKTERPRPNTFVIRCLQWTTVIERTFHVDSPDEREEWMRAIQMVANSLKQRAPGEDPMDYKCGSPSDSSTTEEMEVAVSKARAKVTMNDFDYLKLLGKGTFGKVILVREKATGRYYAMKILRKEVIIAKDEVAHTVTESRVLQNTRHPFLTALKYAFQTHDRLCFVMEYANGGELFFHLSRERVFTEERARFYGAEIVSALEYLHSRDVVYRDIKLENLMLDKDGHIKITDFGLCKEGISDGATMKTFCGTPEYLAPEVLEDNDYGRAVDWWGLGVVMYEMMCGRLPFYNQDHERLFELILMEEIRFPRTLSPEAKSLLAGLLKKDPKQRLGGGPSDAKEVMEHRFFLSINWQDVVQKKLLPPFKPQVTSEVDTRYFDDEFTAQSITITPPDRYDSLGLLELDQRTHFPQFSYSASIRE
Sequence of Insulin receptor-related protein (Homo sapiens) (P14616 27-742 limits assumed): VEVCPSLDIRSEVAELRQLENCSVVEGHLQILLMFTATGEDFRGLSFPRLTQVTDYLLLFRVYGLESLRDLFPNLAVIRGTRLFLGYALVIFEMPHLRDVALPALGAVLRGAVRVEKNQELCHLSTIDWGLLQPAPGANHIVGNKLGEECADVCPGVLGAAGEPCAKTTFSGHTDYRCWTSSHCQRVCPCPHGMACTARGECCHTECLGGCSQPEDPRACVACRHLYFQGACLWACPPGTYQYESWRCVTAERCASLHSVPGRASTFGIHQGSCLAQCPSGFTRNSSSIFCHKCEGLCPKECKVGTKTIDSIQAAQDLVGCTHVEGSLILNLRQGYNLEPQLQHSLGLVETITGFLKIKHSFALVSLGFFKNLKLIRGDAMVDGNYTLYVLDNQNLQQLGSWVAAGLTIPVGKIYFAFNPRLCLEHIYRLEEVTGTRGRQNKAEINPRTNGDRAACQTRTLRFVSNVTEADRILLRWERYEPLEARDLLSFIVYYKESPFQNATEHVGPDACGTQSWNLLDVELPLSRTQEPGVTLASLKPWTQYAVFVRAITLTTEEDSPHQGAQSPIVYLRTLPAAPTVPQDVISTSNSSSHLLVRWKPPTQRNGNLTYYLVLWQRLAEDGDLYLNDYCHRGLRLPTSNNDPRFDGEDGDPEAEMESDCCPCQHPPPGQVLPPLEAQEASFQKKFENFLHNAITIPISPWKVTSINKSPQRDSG
Sequence of Insulin receptor-related protein (Homo sapiens) (P14616 747-1297 limits assumed): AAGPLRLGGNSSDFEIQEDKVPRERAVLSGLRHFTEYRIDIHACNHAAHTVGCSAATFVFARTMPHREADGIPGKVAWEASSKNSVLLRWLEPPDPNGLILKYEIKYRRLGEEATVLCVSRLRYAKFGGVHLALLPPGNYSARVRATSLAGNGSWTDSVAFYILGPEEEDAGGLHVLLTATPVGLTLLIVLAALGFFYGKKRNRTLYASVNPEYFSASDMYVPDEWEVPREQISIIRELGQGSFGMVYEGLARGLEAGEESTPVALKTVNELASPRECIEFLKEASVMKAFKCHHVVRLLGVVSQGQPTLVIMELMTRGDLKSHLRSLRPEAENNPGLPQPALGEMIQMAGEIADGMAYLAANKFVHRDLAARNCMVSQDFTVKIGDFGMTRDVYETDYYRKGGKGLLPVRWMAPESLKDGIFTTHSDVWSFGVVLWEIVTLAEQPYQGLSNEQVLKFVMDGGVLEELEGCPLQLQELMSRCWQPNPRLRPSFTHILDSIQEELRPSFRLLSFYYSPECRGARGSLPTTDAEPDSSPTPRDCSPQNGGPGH
Sequence of Serine/threonine-protein kinase pim-1 (P11309 whole entry, looked up): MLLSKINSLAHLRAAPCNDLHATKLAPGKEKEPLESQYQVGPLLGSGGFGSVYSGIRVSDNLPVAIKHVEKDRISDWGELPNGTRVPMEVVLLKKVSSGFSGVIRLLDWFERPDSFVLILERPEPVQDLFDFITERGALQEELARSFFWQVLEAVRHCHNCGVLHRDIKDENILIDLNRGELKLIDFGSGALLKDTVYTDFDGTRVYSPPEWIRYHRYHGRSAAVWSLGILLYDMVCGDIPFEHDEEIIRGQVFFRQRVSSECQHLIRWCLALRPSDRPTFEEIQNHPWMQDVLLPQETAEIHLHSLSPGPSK

`CN(C)C/C=C/C(=O)Nc1ccc(C(=O)N2CCCC(Nc3ncc(Cl)c(-c4c[nH]c5ccccc45)n3)C2)cc1` (stereo not given) was tested, and the % of control [1] was 97%.

In the case of `Nc1cnc(N2CCc3cc(S(=O)(=O)Nc4c(F)cc(Cl)cc4F)cc(N4CCCC4=O)c32)nc1` [TP-020n], the % of control [2] is reported as 100%.

Compound `CNC(=O)Nc1ccc(-c2nc(N3CC4CCC(C3)O4)c3cnn(C4CCC5(CC4)OCCO5)c3n2)cc1` has a % of control [3] of 100%.

`COCC(=O)NC/C=C/c1ccc2ncnc(Nc3ccc(Oc4ccc(C)nc4)c(C)c3)c2c1` [CP-724714] showed a % of control [4] of 100%.

`CC[C@@H]1[C@H](F)C(=O)N[C@@H]1COc1nccc2cc(C(N)=O)c(OC)cc12` [ZIMLOVISERTIB] gave a % of inhibition ([5]; at 0.01 µM) of 0.5%, a % of inhibition ([5]; at 0.04 µM) of 6.6% and a % of inhibition ([5]; at 0.2 µM) of -14.2%. For the same compound, the % of inhibition ([5]; at 1 µM) was 6.3% and the % of inhibition ([5]; at 5 µM) was 19.6%.

In the case of `COc1cc(N(C)c2ccnc3ccc(C(F)(F)F)cc23)cc(OC)c1OC`, the % binding [6] is reported as 72%.

Compound `C=CC(=O)Nc1cccc(C(=O)Nc2ccc(Nc3cc(-c4[nH]c(SC)nc4C)ccn3)cc2)c1` has a % of control ([7]; at 1 µM) of 85% and a % of control ([7]; at 5 µM) of 89%.

For `O=C(NOC[C@H](O)CO)c1ccc(F)c(F)c1Nc1ccc(I)cc1F`, the % of control [8] was 100%.

With `Cc1cnc(Nc2ccc(F)cc2Cl)nc1-c1c[nH]c(C(=O)N[C@H](CO)c2cccc(Cl)c2)c1` the % of inhibition [9] was 9%.

`Cc1cc(F)c(C(=O)Nc2cccc(-c3nncn3C(C)C)n2)cc1-n1cnc(C2CC2)c1` gave a % of control [10] of 79%.
